Laboratory results taken from patent US20200093776A1, “MUCOSAL IMMUNOSTIMULATOR” (Yamada Bee Company, Inc., priority 2015, published 2020).

Tests used:
[1] = system: Caco-2 cells; test: M-cell differentiation induction test, FACS analysis using GP2 as an indicator; assay type: cell-based, human; settings: Caco-2 single-layer film, final concentration 100 μM, cultured 3 days; for expression of GP2 (FACS): vs DMSO control
Method: (§1) As an in vitro M-cell model, Caco-2 cells derived from human intestinal epithelium cells were used. The Caco-2 cells were cultured in an EMEM medium (produced by Nissui Pharmaceutical Co., Ltd.) supplemented with 2% fetal calf serum (FCS, produced by CANSERA INTERNATIONAL), 2 mM glutamine (produced by Wako Pure Chemical Industries, Ltd.), and 0.1 mM nonessential amino acid (produced by Gibco) at 37° C. in the presence of 5% CO2. The cells were subcultured within a range of logarithmic growth (2.0×10^5 to 1.0×10^6 cells/mL). The cell concentration was determined by counting the number of living cells and the number of dead cells by the trypan blue staining method.
The induction of the differentiation of M cells by various fatty acids (10-hydroxydecanoic acid, (+/−)-3-hydroxydecanoic acid, (9R)-9,10-dihydroxydecanoic acid, and 10-hydroxy-2-(E)-decenoic acid) was analyzed by FACS using GP2 as an indicator. As the 10-hydroxydecanoic acid (10HDAA), one produced by SIGMA-ALDRICH was used; as the (+/−)-3-hydroxydecanoic acid (311DAA), one produced by SIGMA-ALDRICH was used; and as the 10-hydroxy-2-(E)-decenoic acid (10-HDA), one produced by Wako Pure Chemical Industries, Ltd. was used. The (9R)-9,10-dihydroxydecanoic acid (DDA-11) used was, synthesized based on the method described in Tetrahedron: Asymmetry, 2009, 20, pp. 457-460, by tosylating (4R)-4-(2-hydroxyethyl)-2,2-dimethyl-1,3-dioxolane, and extending the chain with 5-bromo-1-pentene by a Grignard reaction, followed by ozone degradation, Wittig reaction with diethylphosphonic acid ethyl ester, hydrogenation by a catalytic hydrogenation reaction, removal of acetonide by acetic acid treatment, and removal of the ethyl group by potassium hydroxide treatment.
Each of the above fatty acids was prepared as a DMSO solution (10 mM). After the Caco-2 cells were seeded in a 6-well plate and allowed to form a single-layer film, each of the above fatty acids was added so that the final concentration was […]. The same amount of DMSO was added as a control. The medium was as described above. After addition, the cells were cultured at 37° C. in the presence of 5% CO2 for 3 days. After culture, the cells were collected with 1 mM EDTA.2Na/PBS(−) (pH 7.2), and stained with rabbit anti-GP2 antibody (produced by IMGENEX) and Alexa 488-labeled anti-rabbit antibody (produced by Molecular probes). The stained cells were analyzed by FACS (produced by BECKMAN COULTER), and GP2 expression levels were quantified.

[2] = system: Caco-2 cells; test: M-cell differentiation induction test, morphological analysis by electron microscope; assay type: cell-based, human; settings: Caco-2 in Transwell insert, 100 μM applied from the apical side, 3 days
Method: as §1
After the Caco-2 cells were seeded at 2×10^5 cells in a Transwell insert ([…] Transwell, produced by Corning) and allowed to form a single-layer film, 10-hydroxydecanoic acid (final concentration: […]) was applied from the apical side of the single-layer film, and the cells were cultured at 37° C. in the presence of 5% CO2 for 3 days.

[3] = system: cynomolgus monkeys; parameters: species or system Macaca fascicularis; settings: cynomolgus monkey, in vivo, po

## CCCCCCCC(O)CC(=O)O (racemic) [(+/−)-3-hydroxydecanoic acid]
[1]
  expression of GP2 (FACS): induced the expression of GP2

## O=C(O)/C=C/CCCCCCCO [10-hydroxy-2-(E)-decenoic acid, reference compound]
[1]
  expression of GP2 (FACS): did not induce the expression of GP2

## O=C(O)CCCCCCCCCO [10-hydroxydecanoic acid]
[1]
  intensity of induction of GP2 expression compared with (+/−)-3-hydroxydecanoic acid: induced more intensely the expression of GP2
  expression of GP2 (FACS): induced the expression of GP2
[2]
  cell morphology (microvilli, M cell-like cells): cells with short microvilli were observed
[3]
  anti-Fetuin IgA antibody titer in the feces: increases
  anti-influenza virus IgA antibody titer in the feces: increases
  anti-poliovirus IgA antibody titer in the feces: increases

## O=C(O)CCCCCCC[C@@H](O)CO [(9R)-9,10-dihydroxydecanoic acid, reference compound]
[1]
  expression of GP2 (FACS): did not induce the expression of GP2
